In patent publication US5614548A, “Quaternary amine containing ether or ester lipid derivatives and therapeutic compositions” (priority 1994, dated 1997):

Assays:
CEM-SS cells = experiment: CEM-SS cell growth (3H-TdR uptake); format: cell-based; conditions: Homo sapiens, 48 hours, N = 3, read-out: Inhibitory Concentration50 CEM-SS Cell Growth
Source text: (§1) Next investigated were the correlations of EL analog structure with anti-HIV-l and anti-cell growth. The experimental method used six serial two-fold dilutions of EL that spanned concentrations above and below a concentration that inhibits HIV-1 plaque count, cell growth (^3 H-TdR uptake into cell DNA) or in vitro PKC activity by 50% (inhibitory concentration50 =IC50) compared to an appropriate mock treated control. Table 7 summarizes data on IC50 of phosphorus and non-phosphorus compounds for HIV-1 plaque formation and cell growth.
formation are x ± one SD., N = 4. CEMSS cell growth is measured in
suspension cultures by treating the cells with compound for 48 hours at
37° C. and then adding 1 μCi of ^3 HTdR (S.A. = 20 Ci/mmole
for 8 hours at 37° C. to measure DNA synthesis. IC50 values
for CEMSS growth are x of a representative experiment, N = 3.

HIV-1 [1] = experiment: HIV-1 plaque assay, inhibitor added 60 minutes after infection; format: cell-based, human immunodeficiency virus type 1 (HIV-1); conditions: for anti-HIV-1 activity: HIV-1 plaque formation, in words; for IC50: Human immunodeficiency virus 1, CEM-SS monolayers, compound from sixty minutes after infection, N = 4, read-out: Inhibitory Concentration50 HIV-1 Plaque Formation
Source text: (§2) Dextran sulfate was used as a positive control. […] Plaques were counted at five days after infection.
(§3) By way of further background, in our assay HIV-1 syncytial plaques are seen as large, multicellular foci (10 to 25 nuclei/syncytium) that appear either brown and granular or clear. Since the number of HIV-1 syncytial plaques correlates with reverse transcriptase (RT) and p24 core antigen activity in the HIV-1 infected cell overlay fluids, the syncytial plaque assay can be used to quantify the amount of infectious virus. Reverse transcriptase activity was assayed according to a described procedure (B. J. Poeisz et al., Proc. Natl. Acad. Sci. (U.S.A.) […], 7415 (1980)). The activity of p24 core antigen induced by HIV-1 infection of CEM-SS cells was measured spectrophotometrically using the commercial Abbott EIA.
(§4) Compound E inhibited HIV-1 plaque count 43%, 83%, and 91% at concentrations of 0.2, 0.4, and 2.0 μM, respectively, compared to untreated controls. […] In other experiments addition of 0.2, 0.4 and 2.0 μM Compound E starting sixty minutes after HIV-1 infection inhibited HIV-1 plaque formation 28%, 59% and 97% respectively, compared to untreated controls.
as §1
^1 Serial 2fold dilutions of compounds are used. HIV1 plaque formatio
is measured in CEMSS cell monolayers by having compound present starting
sixty minutes after virus infection. IC50 values for HIV1 plaque
formation are x ± one SD., N = 4. CEMSS cell growth is measured in […]

Protein Kinase C = Protein Kinase C activity (32P incorporation into histone); format: biochemical, human (HL-60 cells)
Method: PKC was prepared and assayed as described previously. See Daniel, L. W. et al., Biochem. Biophys. Res. Comm. 151, 291 (1988). In brief, HL-60 cells were grown in 75 milliliter flasks, harvested and washed with ice-cold normal saline. After centrifugation (600×g, 5 minutes, 4° Centigrade), the cell pellet was resuspended (20 mM Tris-HCl, pH 7.5, 2 mM EDTA, 10 mM EGTA, 50 mM 2-mercaptoethanol, 2 mM phenylmethylsulfonyl fluoride) and sonicated for 20 s with a stepped microprobe sonciator. Unbroken cells were removed by centrifugation as above and the supernatant centrifuged (65,000×g, 90 minutes, 4° Centigrade). The supernatant from this step (cytosol) was then fractionated on a 1×8 cm DEAE-Sephacel column after addition to sucrose to a final concentration of 10%. After equilibrating the column (20 mM Tris, pH 7.5, 0.2 mM EDTA, 0.2 mM EGTA, 50 mM 2-mercaptoethanol, 10% sucrose), the sample was loaded and unbound material was washed through with 40 milliliters of the equilibrating buffer. The PKC was eluted by a gradient from 0-0.5M NaCl in the buffer described above. Fractions of 1 milliliter were collected at 25 milliliters per hour and 0.05 milliliter aliquots assayed for PKC activity as described below. The fractions with the highest activity were pooled and used in further experiments.
The assays were done at pH 7.5 in a total volume of 0.25 milliliter and all tubes contained 25 mM Tris, 10 mM MgCl2, 40 μg per milliliter histone, 10 μM ATP (including 1 μCi of [gamma-^32 P]-ATP), 0.1 mM CaCl2, 20 μg per milliliter phosphatidylserine, 0.05 milliliter of the PKC preparation and 2.5 μM of oleoylacetylglycerol (OAG). Enzymatic activity was determined as the incorporation of ^32 P from [gamma-^32 P]-ATP) into histone in the presence of Ca^2+, phosphatidylserine, and OAG. Reactions were initiated by the addition of the enzyme preparation and halted after 20 minutes at 30° Centigrade by the addition of 0.05 milliliters of bovine serum albumin (10 milligrams per milliliter) and 1 milliliter 25% ice-cold trichloroacetic acid. The tubes were kept on ice and then filtered in a millipore vacuum box using Millipore® HA filters and washed with 25% trichloroacetic acid. The radioactivity bound to the filters was determined by scintillation spectrometry in 5 milliliters Budget Solve®. […] The analog to be tested was dissolved in ethanol, and added directly into the reaction mixture before the addition of PKC. As a control, 0.1% ethanol was included in the samples with the enzyme but with no inhibitor.

HIV-1 [2] = experiment: HIV-1 plaque assay, inhibitor added 30 minutes before infection; format: cell-based, human immunodeficiency virus type 1 (HIV-1)
Source text: as §2, §3, §4

[3] = test system: HL60 human leukemia cell line; experiment: HL60 cell growth inhibition (trypan blue, 48 h); format: cell-based; conditions: Homo sapiens, HL-60, 48 h, HL60, 48 hours; read-out: ID50 (the source's name)
Method: A number of the compounds disclosed herein have been tested against the HL60 human leukemia cell line to assess their cytotoxic potential. These analogs were investigated in parallel with ET-18-OMe which was used as the reference compound. The methodologies used in this investigation were the same as described in A. Noseda, M. Berens, C. Piantadosi, and E. J. Modest, Lipids 22, 878-883, 1987. In brief, HL60 cells at a concentration of […] were incubated in wells with one milliliter medium with the experimental drug in parallel with the same concentration of cells with ET-18-OMe (standard) or EtOH (control). After 48 hours of incubation the cells were counted using the trypan blue dye exclusion technique to determine the effect of the drug on cell growth. The experimental drug and ET-18-OMe were tested at the same concentrations, e.g., 10, 5, 2.5 and 1.25 μM.

Structure (SMILES)	IC50 (CEM-SS cells) [µM]	anti-HIV-1 activity (HIV-1 [1])	IC50 (HIV-1 [1]) [µM]	Percent Protein Kinase C Activity Retained (Protein Kinase C; 1.25 μM) [%]	Percent Protein Kinase C Activity Retained (Protein Kinase C; 2.5 μM) [%]	Percent Protein Kinase C Activity Retained (Protein Kinase C; 5.0 μM) [%]	Percent Protein Kinase C Activity Retained (Protein Kinase C; 10.0 μM) [%]	Percent Protein Kinase C Activity Retained (Protein Kinase C; 20.0 μM) [%]	Percent Protein Kinase C Activity Retained (Protein Kinase C; 40.0 μM) [%]	inhibition at 0.2 µM (HIV-1 [1]; Human immunodeficiency virus 1, 1 h, 0.2 μM, 60 minutes after infection) [%]	inhibition at 0.4 µM (HIV-1 [1]; Human immunodeficiency virus 1, 1 h, 0.4 μM, 60 minutes after infection) [%]	inhibition at 2 µM (HIV-1 [1]; Human immunodeficiency virus 1, 1 h, 2.0 μM, 60 minutes after infection, read-out: Inhibition (%)) [%]	inhibition at 0.2 µM (HIV-1 [2]; Human immunodeficiency virus 1, 0.2 μM, 30 minutes before infection, Table 6) [%]	inhibition at 0.4 µM (HIV-1 [2]; Human immunodeficiency virus 1, 0.4 μM, 30 minutes before infection, Table 6) [%]	inhibition at 2 µM (HIV-1 [2]; Human immunodeficiency virus 1, 2.0 μM, 30 minutes before infection, Table 6) [%]	inhibition at 0.2 µM (HIV-1 [2]; Human immunodeficiency virus 1, HIV-1 plaque formation, 0.2 μM, Table 5) [%]	inhibition at 0.4 µM (HIV-1 [2]; Human immunodeficiency virus 1, HIV-1 plaque formation, 0.4 μM, Table 5, read-out: Inhibition (%)) [%]	inhibition at 2 µM (HIV-1 [2]; Human immunodeficiency virus 1, HIV-1 plaque formation, 2 μM, Table 5) [%]	antiviral activity (HIV-1 plaque formation) (HIV-1 [2]; added before or after infection, in words)	IC50 [3] [µM]
CCCCCCCCCCCCCCCCSCC(C[N+](C)(C)CCO)OCC (stereo not shown) [B]	5.4	significant anti-HIV-1 activity	0.63 ± 0.18	92	84	70	70	66	47											
CCCCCCCCCCCCCCCCSCC(C[N+](C)(C)CCO)OC.[Br-] (racemic) [CJM 57, (±)-3-hexadecylthio-2-methoxy-N,N-dimethyl-N-β-hydroxyethyl-1-propyl ammonium bromide]	3.2	significant anti-HIV-1 activity	0.37 ± 0.01							28	59	97	30	38	85	43	83	91	antiviral activity	4.6
CCCCCCCCCCCCCCCC(=O)OC[C@H](COP(=O)([O-])OCC[N+](C)(C)C)OC(=O)CCCCCCCCCCCCCCC [dipalmitoyl-phosphatidylcholine, reference compound]	> 681		> 1360																	
CCCCCCCCCCCCCCCCOCC(O)(CO)CCCCCCCC (stereo not shown) [J]	> 20	did not inhibit HIV-1 plaque formation	> 10																	
CCCCCCCCCCCCCCCCCCSCC(C[N+](C)(C)CCCO)OC (stereo not shown) [I]	3.4	significant anti-HIV-1 activity	0.52 ± 0.33	75	56	49	39	27	23											
